Test [1] concerns human hepatocellular carcinoma cell line HepG2. Briefly: WST-8 antiproliferative assay, HepG2. It is filed as cell-based. The note with it: WST-8 assay, six concentrations 1-100 µM. For orientation: Formazan colour is commonly taken as a measure of viable cells.
For a further test, the target named is T1, JNK-2 (Homo sapiens, UniProt P45984).
T1 construct: HEK293 only for the control lysate
Description: JNK-2 inhibitory assay (SimpleStep ELISA, pT183/Y185). It is filed as biochemical. As to conditions: read-out: IC50 (µM) against JNK-2. A general note: An ELISA detects its analyte on a solid surface through an enzyme-linked reagent.

Another test deals with Hela cells. Description: Apoptosis assay, annexin V/PI flow cytometry. It is filed as cell-based, human. As to conditions: concentration double the IC50, 24 h. An excerpt:
For further investigation of the anticancer activity of compounds 8g and 8i, studies of apoptotic changes after treatment of Hela cells with these inhibitors were examined using fluorescent microscope and flowcytometry. Moreover, to discriminate between apoptosis and necrosis after the treatment of Hela cell with two inhibitors 8g and 8i at different concentrations, a fluorescent microscope was used to distinguish between apoptosis and necrosis based on their characteristic difference in morphology using annexin V and PI [52]. […] This was exposed in the cell membrane of the Hela cells after treatment with two inhibitors due to plasma membrane sprouting and chromatin concentration. The prolonged incubation of Hela cells with two inhibitors directed cells to necrosis, which was marked in red because of the PI staining of necrotic cells as a result of losing their dye-excluding ability owing to a loss of plasma membrane integrity and the dissolution of nuclear chromatin [53] (Figure S1).
Then, 200 µL of medium was added to separate cells, cells were centrifuged for 5 min, and supernatant was decanted. Then, it was washed twice with 100 µL PBS and 200 µL of buffer, 5 µL of PI& Annexin, and 200 µL of PBS was added for the test compounds. For control, 400 µL of PBS was added. […]
A general note: Flow cytometry measures light scatter and fluorescence of single cells or particles in a stream.

The next test deals with Hela cell line. Briefly: Cell cycle analysis, PI staining, flow cytometry. The note with it: for cell cycle arrest phase: Hela, PI staining. It is filed as cell-based, human. Here is the method: This analysis was applied to investigate the effects of tested compounds on cell cycle distribution and on cell-death associated DNA fragmentation. The Hela cell line was analyzed flow cytometrically after propidium iodide (PI) staining, following the treatment of compounds 8g and 8i.
The supernatant was transferred to falcon tube for each plate and each well was washed twice with 3 mL PBS, Trypsin 1 mL was added, and plates were incubated for 3 to 5 min at 37 degrees, then 3 mL of the medium was added to separate cells, cells were centrifuged for 5 min, and supernatant was decanted. Then, it was washed again with 3 mL PBS, and 10 mL of medium was added. Cells were immediately fixed in ice cold 70% ethanol overnight at −20 °C. On the day of the analysis, cells were washed ×3 with PBS and re-suspended in propidium iodide (PI) for 15 min at room temperature, protected from light. Cell-cycle analysis was performed using flowcytometric analysis (BD FACS melody) and data obtained from cell cycle distribution was analyzed using FSC-W (Watson model) to estimate the percentage of cells in G1, S, and G2.

Test [2] in a line: Nitric oxide release, Griess colorimetric method. In kind it is physicochemical. As to conditions: phosphate buffer pH 7.4, N-acetylcysteine. As for the experimental part:
For the indirect determination of NO, the Griess colorimetric approach was utilized, which includes spectrophotometry measurements of the stable decomposition products NO2^− and NO3^−. This method requires that NO3^− is first reduced to NO2^− and then NO2^− is determined by the Griess reaction that includes two steps, the first step is a diazotization reaction in which the NO-derived nitrogen agent, dinitrogen trioxide (N2O3), which is produced by the spontaneous oxidation of NO with sulfanilamide to form the diazonium ion, is used. […] In order to evaluate thiol-induced NO generation from the appropriate compounds, including NO-donating oximes 8a–b, 8d–i, and 10a–c, they were incubated in aqueous phosphate buffer of pH 7.4 in the presence of excess N-acetylcysteine, which serves as a source of thiols that are essential for the release of NO from oximes. The signal intensity of the dye is proportional to the amount of NO released. To quantify the amount of NO released, a standard curve was made by measuring the change in absorbance of various concentrations of standard sodium nitrite solutions treated by the same way. […] At the first hour, the amount of nitric oxide released increased in compounds 8i, 8b, and 8h, while the maximum release of nitric oxide occurring in compounds 8b and 8h was at 2 h. Then, the amount of nitic oxide released declined, which may explain the biological importance of oxime moiety as a source of nitric oxide release in comparison with ketone intermediates 7a–j and 9a–c, as shown in the anticancer activity of oxime derivatives.
The nitrite calibration curve in addition to the absorbance of the tested compounds were measured on Shimadzu UV-160, UV-Visible spectrophotometer (Shimadzu, Tokyo, Japan). The tested compounds were prepared as solutions in DMF and diluted with the buffer system until a concentration of 100 mM. N-Acetyl cysteine solution was prepared in a concentration of 500 mM in methanol. Griess reagent consists of 0.1% w/v NED solution in water and sulfanilamide solution (1% w/v of sulfanilamide in 5% w/v phosphoric acid). Nitrite standard solution (0.1 M sodium nitrite in water) stock solution was prepared, from which a dilute solution of 100 μM nitrite solution was prepared by dilution 1 mL of the stock solution to 1000 mL with phosphate buffer of pH 7.4. From this solution, 4 serials 2-fold dilutions were performed to generate different concentrations of the nitrite solution (100.00, 50.00, 25.00, and 12.50 μM) and these concentrations were used for nitrite calibration curve.
Sulfanilamide and NEDD solutions were kept at 25 °C; […] of sulfanilamide solution was added to each dilution of the prepared standard nitrite solution. The mixture was left at 25 °C for 5–10 min protected from light. To this mixture, […] of the NEDD solution was added and the mixture was again left for 5–10 min at 25 °C protected from light. […] A plot of the average absorbance value for each concentration of the nitrite standard solution as a function of “Y” against nitrite concentration as a function of “X” was constructed to generate a standard nitrite calibration curve at pH 7.4.
The amount of NO released from the tested compounds 8a–b, 8d–I, and 10a–c was measured using the Griess colorimetric method either in phosphate buffer of pH 7.4 in the presence of N-acetyl cysteine, which serves as a source of thiols. The amount of NO released from the tested compounds was measured relative to NO released from standard sodium nitrite solution.
Different solutions of the tested compounds 8a–b, 8d–i, and 10a–c in DMF were diluted using phosphate buffer of pH 7.4 till a final concentration of 100 mM (test solutions). To […] of different test solutions, […] of N-acetyl cysteine solution was added and the obtained solution was kept in an incubator at 37 °C (treated solutions). […]

The test system of test [3] is human pancreatic cancer cell line SUIT-2. Briefly: WST-8 antiproliferative assay, SUIT-2. It is filed as cell-based. The note with it: WST-8 assay, six concentrations 1-100 µM.
Test [4] relates to human colorectal adenocarcinoma cell line DLD-1. Description: WST-8 antiproliferative assay, DLD-1. It is filed as cell-based. The note with it: WST-8 assay, six concentrations 1-100 µM.

Where only a bound is given, the exact number is not on record here.

T1 sequence (P45984 whole entry): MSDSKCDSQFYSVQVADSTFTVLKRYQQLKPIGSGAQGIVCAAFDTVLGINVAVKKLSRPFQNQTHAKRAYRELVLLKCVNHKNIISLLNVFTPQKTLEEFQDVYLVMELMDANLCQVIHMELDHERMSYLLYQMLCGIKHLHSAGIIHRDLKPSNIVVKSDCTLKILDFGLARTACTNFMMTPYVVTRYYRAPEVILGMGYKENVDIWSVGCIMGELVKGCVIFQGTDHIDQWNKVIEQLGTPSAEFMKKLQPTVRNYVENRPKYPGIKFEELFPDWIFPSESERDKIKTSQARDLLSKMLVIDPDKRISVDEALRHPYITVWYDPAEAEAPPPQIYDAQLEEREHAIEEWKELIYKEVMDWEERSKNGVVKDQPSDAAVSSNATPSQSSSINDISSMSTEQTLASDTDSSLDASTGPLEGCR
Description for JNK-2: The SimpleStep ELISA employs an affinity tag-labelled capture antibody and a reporter attached detector antibody to immunocapture the sample analyte in solution. This complete complex (capture antibody/analyte/detector antibody) is then immobilized via immunoaffinity of an anti-tag antibody coating the well. To perform the assay, samples or controls are added to the wells, followed by the antibody cocktail. After incubation, the wells are washed to remove unbound material. TMB substrate is added and during incubation is catalyzed by HRP, generating blue coloration. This reaction is then stopped by the addition of stop solution, completing any color change from blue to yellow. The signal is generated proportionally to the amount of bound analyte and the intensity is measured at 450 nm. Optionally, instead of the endpoint reading, the development of TMB can be recorded kinetically at 600 nm. An antibody cocktail can be prepared by combining an appropriate volume of the capture and detector antibodies immediately prior to assay. To make 3 mL of the antibody cocktail, combine 1.5 mL of capture antibody with 1.5 mL of detector antibody. Mix thoroughly and gently. Control lysate can be prepared from HEK293 cells, cultured in 10% FBS containing medium, then treated with 1 μg/mL anisomycin. After preparing all the reagents, samples, and control as instructed and following the previously published procedures [74, 75], add 50 µL of sample or control to the well, add 50 µL of the antibody cocktail, then incubate at room temperature for 1 h on a plate shaker set to 400 rpm, aspirate and wash each well three times with 350 μL with wash buffer, add 100 μL TMB substrate to each well and incubate for 15 min, then add 100 μL stop solution and measure the absorbance at 450 nm.

`COc1cc(/C(C)=N/O)ccc1OC(=O)c1cc(-c2ccc(C)cc2)n(-c2ccc(S(N)(=O)=O)cc2)n1` [Compound 8g, (E)–4–(1–(Hydroxyimino)ethyl)–2–methoxyphenyl 1–(4–sulfamoylphenyl)–5–p–tolyl–1H–pyrazole–3–carboxylate]: the half-maximal inhibitory concentration (IC50) (commonly the concentration needed to halve the response being measured) is 12.3 µM in test [1], more than 200 µM on JNK-2, 19 µM in test [3] and 32.3 µM in test [4]. For the same compound, in the test on Hela cells, the “percentage of apoptotic Hela cells” value came to 34.7%. Besides, in the test with Hela cell line (48 h), the “percentage of Hela cells at G2 phase” value amounted to 20.5%. Also, the “cell cycle arrest phase” value with Hela cell line is “G2/M arrest”. In test [2], the “Amount of NO Released (mol/mol) 1 h” value came to 0.083 ± 0.035 mol/mol. In addition, in test [2], the “Amount of NO Released (mol/mol) 2 h” value came out at 0.154 ± 0.044 mol/mol. In addition, the “Amount of NO Released (mol/mol) 3 h” value in test [2] was 0.141 ± 0.039 mol/mol. In test [2], the “Amount of NO Released (mol/mol) 4 h” value stood at 0.089 ± 0.019 mol/mol.

For `COc1cc(/C(C)=N/O)ccc1OC(=O)c1cc(-c2ccc(Cl)cc2)n(-c2ccc(S(N)(=O)=O)cc2)n1` [Compound 8i, (E)–4–(1–(Hydroxyimino)ethyl)–2–methoxyphenyl 5–(4–chlorophenyl)–1–(4–sulfamoyl phenyl)–1H–pyrazole–3–carboxylate], at JNK-2, the IC50 turned out to be 1 µM. Besides, the “percentage of apoptotic Hela cells” value in the test with Hela cells came to 17.3%. In the test on Hela cell line, the “cell cycle arrest phase” value was “combined S phase and G2 phase arrest”. In the test on Hela cell line (IC50 concentration, 24 h), the “percentage of Hela cells at G2 phase” value came out at 18.2% and the “percentage of Hela cells at S phase” value is listed as 59.4%. For the same compound, in test [2], the “Amount of NO Released (mol/mol) 1 h” value was determined as 0.105 ± 0.029 mol/mol, the “Amount of NO Released (mol/mol) 2 h” value came out at 0.115 ± 0.018 mol/mol, the “Amount of NO Released (mol/mol) 3 h” value was 0.109 ± 0.046 mol/mol and the “Amount of NO Released (mol/mol) 4 h” value amounted to 0.087 ± 0.035 mol/mol. This compound also registered an IC50 in test [3] of 62 µM.

The record behind these values is paper PMC10537604, “Development and Assessment of 1,5–Diarylpyrazole/Oxime Hybrids Targeting EGFR and JNK–2 as Antiproliferative Agents: A Comprehensive Study through Synthesis, Molecular Docking, and Evaluation” (Molecules, 2023).
